Assay results taken from patent publication US20120058948A1, “Collagen peptides as immune modulators” (priority 2006, published 2012).
Entries after “also recorded” stand apart in the source; their conditions may differ. Square brackets hold non-standard residues; d marks the D form. Ends that are not written are not given here. Hyp = O=C(O)[C@@H]1C[C@@H](O)CN1

System: human peripheral blood monocytes (HPBMs) activated with LPS
Test: LPS-induced IL-1β production (ELISA) from activated HPBMs incubated with LPS and peptide
Format: cell-based
Conditions: for effect on LPS-induced IL-1β production from HPBMs: LPS 3.3×10^−7 M plus peptide 10^−7, 10^−8 or 10^−9 M, compared with LPS alone, FIG. 3; for effect on LPS-induced IL-1β production at all concentrations studied: all peptide concentrations studied (10^−7 to 10^−9 M), FIGS. 3B-D
Description: Samples (10 mg each) of peptide p1 (Lot #10055791, Genemed Synthesis Inc., San Francisco, Calif.), p2 (Lot #10059702, Genemed Synthesis Inc.) and p3 (Lot #10059701, Genemed Synthesis Inc.) were obtained with >98% purity. Each peptide was diluted with phosphate buffered saline (PBS, […], pH 7.2, 20012-043, Invitrogen Corp., Carlsbad, Calif.) yielding solutions of 10 mg/mL. The peptide solutions were incubated at 4° C. for 24 hours, then stored at −80° C. until required. Glucagon (G2044, Sigma-Aldrich, St. Louis, Mo.) was stored, defrosted and treated in an identical manner to p1, p2 and p3.
Human peripheral blood monocytes were isolated from whole blood supplied by a healthy […] as follows. A 45 mL sample was drawn using 3.2% sodium citrate vacuum tubes. Whole blood was then diluted with a 2.5 mM PBS solution (0.1M, […], Sterile, S02131, Teknova Inc., Hollister, Calif.) to form a solution having a 1:2 ratio of blood:PBS solution. Red blood cells were subsequently removed by density gradient separation using a 1:1 ratio of Histopaque-1077 (Sigma-Aldrich) and centrifuged for 30 minutes at 400×g at 25° C. The plasma layer was removed by aspiration, and the buffy layer, comprising lymphocytes, monocytes and platelets, was collected into two 50 mL conical tubes. To remove the excess histopaque, platelets and plasma, the cells were centrifuged at 250×g for an additional 10 minutes at 4° C. The supernatant was removed and the cells resuspended in 2.5 mM PBS sodium citrate and centrifuged again. The platelet-enriched supernatant was removed after the second wash, leaving a cell pellet in each of the two tubes.
The remainder of the monocyte isolation was carried out using a MS 130-041-201 column (MACS, Miltenyi Biotec, Bergisch Gladbach, Germany) and Human Monocyte Isolation Kit II (MACS, Miltenyi Biotec) as outlined by the manufacturer. The column was washed with 1 mL of 1% heat inactivated fetal bovine serum (1% HI-FBS, USA origin, sterile-filtered, cell culture tested, hybridoma tested, F2442 Sigma-Aldrich) in a PBS sodium citrate solution. The cell pellets were combined into one tube. The cell solution was centrifuged at 300×g at 4° C. and the supematant removed before adding 30 microliters of 1% HI-FBS, 20 microliters FCR blocking agent and 20 microliters monocyte biotin-antibody cocktail per 10^7 cells to the pellet. The tube was lightly agitated then chilled for 10 minutes at 4° C. Anti-biotin microbeads (40 microliters) and 30 microliters of additional 1% HI-FBS per 10^7 cells were added to each tube. The tube was vortexed for three to five seconds to mix, then set to chill at 4° C. for another 15 minutes.
After the incubation at 4° C., 2 mL of 1% HI-FBS were added, and the sample was centrifuged for 10 minutes at 300×g at 25° C. to remove excess antibodies and beads. The supernatant was removed and the pellet carefully re-suspended in 500 microliters of 1% HI-FBS. This cell solution was added to the column, and no further fluid was added until the flow of solution through the column had stopped. The tube and column were washed three times with 500 microliters of 1% HI-FBS, and the fluid was collected for cell culture. Subsequent fluorescence activated cell sorter (FACS) analysis of tissue culture samples confirmed a monocyte purity of >82%. Monocytes were seeded at 5×10^5 per well and cultured in 10% FBS RPMI 1640 and allowed to incubate at 37° C. in 5% CO2.
Because the peptides under investigation can spontaneously form triple-helical structures in solution, the peptides were heated to 90° C. for two minutes prior to introducing them to HPBM cultures to ensure that unfolded peptides, corresponding to the collagen-degradation products, were used for the experiments. The peptide solutions were then diluted with RPMI 1640 10% FBS at 37° C., yielding a final concentration of 1 microgram/mL. Serial dilutions of the peptide samples were performed to obtain the solutions at the desired concentration. […]

Row | Sequence | effect on LPS-induced IL-1β production from HPBMs | effect on LPS-induced IL-1β production at a relatively high concentration of peptide (LPS 3.3×10^−7 M, relatively high peptide concentration (close to that in synovial fluid of RA patients), FIG. 3A/3D) | effect on LPS-induced IL-1β production at all concentrations studied (LPS 3.3×10^−7 M) | time at which elevated IL-1β levels began, peptide p1 relative to peptide p3 (LPS 3.3×10^−7 M plus peptide, sampling every four hours for 28 hours)
1 | HSQGTIFTSDYSKYLDSRRAQDFVQWLMNT [peptide p0, reference compound] | no significant effect | not statistically significant | – | –
2 | POGPOGPOGAOGLRGGAGPAGPOGPOGPOG (P[Hyp]GP[Hyp]GP[Hyp]GA[Hyp]GLRGGAGPAGP[Hyp]GP[Hyp]GP[Hyp]G; ends and bridges not checked) [peptide p3, models a relatively imino-poor but relatively rigid collagen segment near a gelatinase scissile bond, flanked by POG triplets] | additive effect; also recorded: greatest effect; also recorded: augmented | – | augment | –
3 | POGPOGPOGPOGPOGPOGPOGPOGPOGPOG [peptide p1] | additive effect; also recorded: augmented | – | augment | later time
